Molecules are shown by their SMILES.

The test has as its target T1, GPR119 receptor (Homo sapiens, UniProt Q8TDV5).
T1 construct: expressed in transfected cells
T1 sequence (Q8TDV5 1-335): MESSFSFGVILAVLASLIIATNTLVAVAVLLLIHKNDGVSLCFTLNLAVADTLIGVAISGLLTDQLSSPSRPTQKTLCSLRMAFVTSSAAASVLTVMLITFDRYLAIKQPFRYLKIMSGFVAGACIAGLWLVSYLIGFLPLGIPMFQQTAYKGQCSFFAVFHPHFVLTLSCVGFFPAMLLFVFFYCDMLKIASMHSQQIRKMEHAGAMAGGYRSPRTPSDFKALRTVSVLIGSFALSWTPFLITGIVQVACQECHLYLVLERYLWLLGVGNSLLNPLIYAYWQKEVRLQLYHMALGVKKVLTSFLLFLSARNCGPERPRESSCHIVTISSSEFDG
Briefly: cAMP assay in cells transfected with the GPR119 receptor (human). The test is classed as cell-based. To be noted: increase in intracellular cAMP, read-out: h-cAMP EC50. The protocol:
The activity of these compounds may be assayed in cells transfected the GPR119 receptor (human, mouse, rat or monkey). Incubation with the above compounds results in an increase in intracellular cAMP, from which an EC50 value may be calculated. Ki values for compounds at this receptor can be determined by employing a radio-labeled agonist. In vivo activity can be determined by conducting an oral glucose-tolerance test in an appropriate species, such as mouse.
Broadly, the EC50 is the concentration needed to bring the measured effect to its halfway point. Regarding `CC(C)(C)OC(=O)N1CC2COCC(C1)C2Oc1ncnc2c(-c3ccc(C#N)cc3F)csc12` (stereo not shown) [Example 1], the EC50 was determined as 8 nM.

As to `CC(C)(C)OC(=O)N1CC2COCC(C1)C2Oc1ncnc2c(-c3ccc(S(C)(=O)=O)cc3F)csc12` (stereo not shown) [Example 2], the EC50 was 62 nM.

With `CC1(OC(=O)N2CC3COCC(C2)C3Oc2ncnc3c(-c4ccc(C#N)cc4F)csc23)CC1` (stereo not shown) [Example 3], the EC50 stood at 9 nM.

Take `CS(=O)(=O)c1ccc(-c2csc3c(OC4C5COCC4CN(c4ncc(Cl)cn4)C5)ncnc23)c(F)c1` (stereo not shown) [Example 4]: the EC50 was 23 nM.

`CC(C)(C)OC(=O)N1CC2COCC(C1)C2Oc1ncnc2c(-c3ccc(F)cc3F)csc12` (stereo not shown) [Example 5]: the EC50 stood at 18 nM.

As for `CC1(OC(=O)N2CC3COCC(C2)C3Oc2ncnc3c(-c4ccc(F)cc4F)csc23)CC1` (stereo not shown) [Example 6], the EC50 amounted to 16 nM.

As to `CS(=O)(=O)c1ccc(-c2csc3c(OC4C5COCC4CN(c4ncc(F)cn4)C5)ncnc23)c(F)c1` (stereo not shown) [Example 7], the EC50 stood at 47 nM.

On to `CCCc1cnc(N2CC3COCC(C2)C3Oc2ncnc3c(-c4ccc(S(C)(=O)=O)cc4F)csc23)nc1` (stereo not shown) [Example 8], for which the EC50 was 150 nM.

For the molecule `CC(C)(C)OC(=O)N1CC2COCC(C1)C2Oc1ncnc2c(-c3ccc(C#N)cc3Cl)csc12` (stereo not shown) [Example 9], the EC50 worked out at 47 nM.

Turning to `CC1(OC(=O)N2CC3COCC(C2)C3Oc2ncnc3c(-c4ccc(C#N)cc4Cl)csc23)CC1` (stereo not shown) [Example 10], the EC50 turned out to be 24 nM.

As for `N#Cc1ccc(-c2csc3c(OC4C5COCC4CN(c4ncc(Cl)cn4)C5)ncnc23)c(Cl)c1` (stereo not shown) [Example 11], the EC50 turned out to be 18 nM.

Regarding `CC1(OC(=O)N2CC3COCC(C2)C3Oc2ncnc3c(-c4ccc(C(=O)C5CC5)cc4Cl)csc23)CC1` (stereo not shown) [Example 12], the EC50 stood at 86 nM.

On to `CC1(OC(=O)N2CC3COCC(C2)C3Oc2ncnc3c(-c4ccc(C#N)cc4F)c[nH]c23)CC1` (stereo not shown) [Example 14], for which the EC50 worked out at 298 nM.

For `CS(=O)(=O)c1ccc(-c2c[nH]c3c(OC4C5COCC4CN(c4ncc(Cl)cn4)C5)ncnc23)c(F)c1` (stereo not shown) [Example 16], the EC50 is 247 nM.

Turning to `Cn1cc(-c2ccc(C#N)cc2F)c2ncnc(OC3C4COCC3CN(C(=O)OC3(C)CC3)C4)c21` (stereo not shown) [Example 17], the EC50 was 13 nM.

Consider `Cn1cc(-c2ccc(S(C)(=O)=O)cc2F)c2ncnc(OC3C4COCC3CN(c3ncc(Cl)cn3)C4)c21` (stereo not shown) [Example 21], for which the EC50 was found to be 5.3 nM.

In the case of `CC1(OC(=O)N2CC3COCC(C2)C3Oc2ncnc3c(-c4ccc(Cl)cc4F)csc23)CC1` (stereo not shown) [Example 22], the EC50 is 2 nM.

Consider `COc1ccc(-c2csc3c(OC4C5COCC4CN(C(=O)OC4(C)CC4)C5)ncnc23)c(F)c1` (stereo not shown) [Example 23], for which the half-maximal effective concentration (EC50) was found to be 1.1 nM.

For the molecule `CC1(OC(=O)N2CC3COCC(C2)C3Oc2ncnc3c(-c4ccc(F)cc4C#N)csc23)CC1` (stereo not shown) [Example 24], the EC50 is 1.2 nM.

With `COC(=O)c1ccc(-c2csc3c(OC4C5COCC4CN(C(=O)OC4(C)CC4)C5)ncnc23)c(F)c1` (stereo not shown) [Example 25], the EC50 is 0.46 nM.

For the molecule `COc1ccc(-c2csc3c(OC4C5COCC4CN(C(=O)OC(C)C)C5)ncnc23)c(F)c1` (stereo not shown) [Example 27], the EC50 amounted to 0.76 nM.

With `COc1ccc(-c2csc3c(OC4C5COCC4CN(c4ncc(Cl)cn4)C5)ncnc23)c(F)c1` (stereo not shown) [Example 28], the EC50 is 2.1 nM.

Take `CC1(OC(=O)N2CC3COCC(C2)C3Oc2ncnc3c(-c4ccc(CO)cc4F)csc23)CC1` (stereo not shown) [Example 29]: the EC50 came to 0.48 nM.

With `COCc1ccc(-c2csc3c(OC4C5COCC4CN(C(=O)OC4(C)CC4)C5)ncnc23)c(F)c1` (stereo not shown) [Example 30], the concentration for a half-maximal effect (EC50) was 0.74 nM.

On to `Cn1cc(-c2ccc(F)cc2F)c2ncnc(OC3C4COCC3CN(C(=O)OC3(C)CC3)C4)c21` (stereo not shown) [Example 31], for which the concentration giving a half-maximal response (EC50) is 8.4 nM.

For `COc1ccc(-c2cn(C)c3c(OC4C5COCC4CN(C(=O)OC4(C)CC4)C5)ncnc23)c(F)c1` (stereo not shown) [Example 32], the EC50 was found to be 5.7 nM.

On to `CS(=O)(=O)c1ccc(-c2csc3c(OC4C5COCC4CN(CC(F)(F)C(F)(F)F)C5)ncnc23)c(F)c1` (stereo not shown) [Example 33], for which the EC50 amounted to 1 nM.

In the case of `Fc1ccc(-c2csc3c(OC4C5COCC4CN(CC(F)(F)C(F)(F)F)C5)ncnc23)c(F)c1` (stereo not shown) [Example 34], the EC50 amounted to 72 nM.

With `COc1ccc(-c2csc3c(OC4C5COCC4CN(CC(F)(F)C(F)(F)F)C5)ncnc23)c(F)c1` (stereo not shown) [Example 35], the EC50 is 45 nM.

`N#Cc1ccc(-c2csc3c(OC4C5COCC4CN(CC(F)(F)C(F)(F)F)C5)ncnc23)c(Cl)c1` (stereo not shown) [Example 36]: the EC50 is 35 nM.

In the case of `N#Cc1ccc(-c2csc3c(OC4C5COCC4CN(CC(F)(F)C(F)(F)F)C5)ncnc23)c(F)c1` (stereo not shown) [Example 37], the EC50 amounted to 1.6 nM.

With `COc1ccc(-c2csc3c(OC4C5COCC4CN(C(=O)OC4(C)CC4)C5)ncnc23)c(Cl)c1` (stereo not shown) [Example 38], the concentration for a half-maximal effect (EC50) came to 0.44 nM.

With `Cc1ccc(-c2csc3c(OC4C5COCC4CN(C(=O)OC4(C)CC4)C5)ncnc23)c(F)c1` (stereo not shown) [Example 39], the EC50 was determined as 0.36 nM.

`CC1(OC(=O)N2CC3COCC(C2)C3Oc2ncnc3c(-c4ncc(F)cc4F)csc23)CC1` (stereo not shown) [Example 40]: the concentration giving a half-maximal response (EC50) was 0.51 nM.

For the molecule `CC1(OC(=O)N2CC3COCC(C2)C3Oc2ncnc3c(-c4ccc(S(C)(=O)=O)cc4F)csc23)CC1` (stereo not shown) [Example 41], the concentration for a half-maximal effect (EC50) is 0.47 nM.

Consider `Cn1cc(-c2ccc(S(C)(=O)=O)cc2F)c2ncnc(OC3C4COCC3CN(C(=O)OC3(C)CC3)C4)c21` (stereo not shown) [Example 42], for which the EC50 came to 1 nM.

Regarding `CCS(=O)(=O)c1ccc(-c2csc3c(OC4C5COCC4CN(C(=O)OC4(C)CC4)C5)ncnc23)cc1` (stereo not shown) [Example 43], the EC50 was 0.38 nM.

`CC1(OC(=O)N2CC3COCC(C2)C3Oc2ncnc3c(-c4ccc(O)cc4F)csc23)CC1` (stereo not shown) [Example 44]: the EC50 came to 1 nM.

With `CC1(OC(=O)N2CC3COCC(C2)C3Oc2ncnc3c(-c4ccc(F)cc4Cl)csc23)CC1` (stereo not shown) [Example 45], the EC50 worked out at 0.1 nM.

Regarding `COC(=O)COc1ccc(-c2csc3c(OC4C5COCC4CN(C(=O)OC4(C)CC4)C5)ncnc23)c(F)c1` (stereo not shown) [Example 46], the EC50 turned out to be 2.5 nM.

On to `CC1(OC(=O)N2CC3COCC(C2)C3Oc2ncnc3c(-c4ccc(C#N)cc4)csc23)CC1` (stereo not shown) [Example 47], for which the EC50 amounted to 1 nM.

For the molecule `CC1(OC(=O)N2CC3COCC(C2)C3Oc2ncnc3c(-c4ccc(F)c(CO)c4F)csc23)CC1` (stereo not shown) [Example 48], the concentration giving a half-maximal response (EC50) came to 1.4 nM.

In the case of `Cc1c(F)ccc(-c2csc3c(OC4C5COCC4CN(C(=O)OC4(C)CC4)C5)ncnc23)c1F` (stereo not shown) [Example 49], the concentration for a half-maximal effect (EC50) is 1.7 nM.

In the case of `CC1(OC(=O)N2CC3COCC(C2)C3Oc2ncnc3c(-c4ccc(S(C)(=O)=O)cc4)csc23)CC1` (stereo not shown) [Example 50], the EC50 is 2.2 nM.

In the case of `CC1(OC(=O)N2CC3COCC(C2)C3Oc2ncnc3c(-c4ccc(OCCO)cc4F)csc23)CC1` (stereo not shown) [Example 51], the EC50 was determined as 0.65 nM.

`CC(C)(O)COc1ccc(-c2csc3c(OC4C5COCC4CN(C(=O)OC4(C)CC4)C5)ncnc23)c(F)c1` (stereo not shown) [Example 52]: the EC50 stood at 0.5 nM.

(Values after patent US20130096141A1, “BICYCLIC HETEROCYCLE DERIVATIVES AND METHODS OF USE THEREOF” (priority 2010, published 2013).)
